Laboratory results: patent US6060043A, “Deodorant composition containing D-amino acid” (The Gillette Company, priority 1998, dated 2000)
In brackets after ≈: the same amount, converted by molar mass.

Legend:
[1] = test system: Staphylococcus haemolyticus; test: Minimum inhibitory concentration (MIC) in axillary bacteria, Staphylococcus strain; assay type: cell-based
Protocol: (§1) In vitro experiments were conducted in order to determine the ability of several bacterial cell wall synthesis inhibitors to inhibit the growth of axillary bacteria. The minimum inhibitory concentrations (MIC) of β-chloro-D-alanine (BCA), and D-cycloserine were determined in Staphylococcus (Staphylococcus haemolyticus) and Coryneform strains of axillary bacteria as follows: Frozen stock cultures were thawed out and 50 μl of Staphylococcus haemolyticus or 100 μl of Coryneform bacteria were inoculated into 5.0 ml of nutrient media. Bacteria were incubated at 35° C. overnight to produce cultures in log phase growth. A series of tubes was set up into which serial dilutions of BCA or triclosan in nutrient media were added in the range of 0.1 to 0.0001 wt/v % (where 1 g/100 ml=1 wt/v %). The tubes were inoculated with 50 μl of log phase Staphylococcus haemolyticus or Coryneform cultures and incubated at 35° C. overnight. […] The minimum bactericidal concentration (MBC) was determined by adding 50 μl from each clear solution of the MIC experiment into 5.0 ml of fresh nutrient media and incubating overnight at 37° C. […] The MIC of BCA was thus determined to be 0.1 wt/v % and 0.001 wt/v % in Staphylococcus haemolyticus and Coryneforms, respectively. The MIC of D-cycloserine was thus determined to be 0.01 wt/v % and 0.005 wt/v % in Staphylococcus haemolyticus and Coryneforms, respectively. By comparison, the MIC of the common antibacterial deodorant compound triclosan is 0.01 wt/v % and 0.1 wt/v % in Staphylococcus haemolyticus and Coryneforms, respectively.

axillary malodor [2] = test: Example 6: axillary malodor evaluation by odor judges, 1.0% β-chloro-D-alanine vs 1.0% β-chloro-L-alanine; assay type: in vivo, human; parameters: key to 24 Hour Drop from Control / A-B (drop), D-BCA minus L-BCA: drop in odor score on 0 (no odor) to 10 (very intense) scale; conditions: for 24 Hour Drop from Control: 1.0% in 60% propylene glycol/40% water
Protocol: (§2) BCA was dissolved in a mixture of 60% propylene glycol and 40% water at a final concentration of 1.0%. The pH of the solution was adjusted to about 6.25 with 10 N NaOH. Thirty-nine female panelists applied 0.5 ml of this test solution to either the right or left axilla and 0.5 ml of a comparative solution of 60% propylene glycol and 40% water to the other. The side of application of the test or comparative solutions was assigned in a random fashion. Twenty-four hours after application, each side of the panelists' axilla was judged for odor by a panel of trained odor judges on a scale of 0 (no odor) to 10 (very intense, disagreeable odor). This procedure was performed on four consecutive days. […] Analysis of the clinical results is summarized below:
A test product containing 1.0% β-chloro-D-alanine (BCA)[…] in 60% propylene glycol/40% water was compared to a comparative product containing 1.0% β-chloro-L-alanine in 60% propylene glycol/40% water by application to 50 female test subjects according to the procedure of Example 4.

Coryneform bacteria = test: Minimum inhibitory concentration (MIC) in axillary bacteria, Coryneform strain; assay type: cell-based, Coryneform strains of axillary bacteria
Protocol: as §1

[3] = In vivo test for axillary irritation of 1.0% BCA; parameters: species or system human; conditions: 1.0% in 60% propylene glycol/40% water, pH about 6.25, 1.0 ml, four consecutive days, seven panelists
Protocol: In vivo experiments were conducted to determine if 1.0% solutions of BCA were irritating to axillary skin. BCA was dissolved in a mixture of 60% propylene glycol and 40% water at a final concentration of 1.0%. The pH of the solution was adjusted to about 6.25 with 10 N NaOH. Seven panelists applied 1.0 ml of this test solution to a cotton applicator swab and applied the solution to either the right or left axilla. 1.0 ml of a control solution of 60% propylene glycol and 40% water was similarly applied to the other axilla. The side of application of the test or control solutions was assigned in a random fashion. This procedure was performed on four consecutive days. Axilla were monitored by a nurse for signs of skin irritation.

axillary malodor [4] = test: Example 4: axillary malodor evaluation by trained odor judges, 1.0% BCA vs vehicle; assay type: in vivo, human; conditions: for 24 hours drop from untreated Control / Malodor Evaluation (score): 1.0% BCA; for Malodor Evaluation (score): 24 h after application, scale 0 to 10
Protocol: as §2
Significance was measured in a two-tailed T-test al 95% confidence level and n=number of subjects.

β-lyase = test: Sniff vial test: malodor formation from precursors by whole Staphylococcus haemolyticus cells (beta-lyase inhibition); assay type: cell-based; conditions: 31-0.625 mM, phosphate buffer pH 6.8, 30 minutes at 35° C.; judged by smelling
Protocol: BCA was tested for its ability to prevent Staphylococcus haemolyticus from metabolizing sweat to form malodor. Log-phase cultures of Staphylococcus haemolyticus were incubated with various concentrations of BCA (31-0.625 mM) in phosphate buffer (pH 6.8) for 30 minutes at 35° C. The cell/BCA mixture was then added to a "sniff vial" containing malodor precursors and incubated at 35° C. for an additional 30 minutes. Malodor compounds were then extracted from the mixture with chloroform and malodor was judged by spotting 10 μl of chloroform extracts onto bibulous paper and smelling. […] In contrast, the β-lyase inhibitor aminooxyacetic acid (AOA) consistently prevents malodor in the above assay at concentrations of 5.0 mM.

For N[C@H](CCl)C(=O)O [BCA, β-chloro-D-alanine], the MIC [1] was 1000 µg/mL (≈ 8.09 mM), the “A-B (drop), D-BCA minus L-BCA” value (axillary malodor [2]; composite) was 0.436 and the “24 Hour Drop from Control” value (axillary malodor [2]; composite) was 1.519. The “Control of malodor, BCA test product versus 1.0% β-chloro-L-alanine comparative product” value (axillary malodor [2]; measurements 2-4 and composite, 95% level of confidence, not the first measurement) was “significantly more effective”, the “A-B (drop), D-BCA minus L-BCA” value (axillary malodor [2]; post-application measurement 1) was 0.166 and the “24 Hour Drop from Control” value (axillary malodor [2]; post-application measurement 1) was 1.079. The “A-B (drop), D-BCA minus L-BCA” value (axillary malodor [2]; post-application measurement 2) was 0.452, the “24 Hour Drop from Control” value (axillary malodor [2]; post-application measurement 2) was 1.492 and the “A-B (drop), D-BCA minus L-BCA” value (axillary malodor [2]; post-application measurement 3) was 0.665. For the same molecule, the “24 Hour Drop from Control” value (axillary malodor [2]; post-application measurement 3) was 1.678, the “A-B (drop), D-BCA minus L-BCA” value (axillary malodor [2]; post-application measurement 4) was 0.529 and the “24 Hour Drop from Control” value (axillary malodor [2]; post-application measurement 4) was 1.862. The MIC (Coryneform bacteria) was 10 µg/mL (≈ 0.0809 mM), the Axillary skin irritation [3] was “No incidences of irritation were reported” and the Axillary skin irritation (axillary malodor [4]; 1.0% in 60% propylene glycol/40% water, 0.5 ml, four consecutive days, thirty-nine female panelists) was “No incidences of irritation were reported”. The “Deodorant efficacy versus 60% propylene glycol/40% water comparative product” value (axillary malodor [4]; 95% confidence level, measurements 3, 4 and composite) was “significantly more effective”, the “A-B (drop of comparative product minus drop of BCA product)” value (axillary malodor [4]; composite) was -0.29 and the “24 hours drop from untreated Control” value (axillary malodor [4]; composite) was 0.96. The “Malodor Evaluation (score)” value (axillary malodor [4]; measurement 1) was 4.18, the “Malodor Evaluation (score)” value (axillary malodor [4]; measurement 2) was 3.6 and the “Malodor Evaluation (score)” value (axillary malodor [4]; measurement 3) was 3.3. For the same molecule, the “Malodor Evaluation (score)” value (axillary malodor [4]; measurement 4) was 3.49, the “A-B (drop of comparative product minus drop of BCA product)” value (axillary malodor [4]; post-application measurement 1) was 0.11 and the “24 hours drop from untreated Control” value (axillary malodor [4]; post-application measurement 1) was 0.41. The “A-B (drop of comparative product minus drop of BCA product)” value (axillary malodor [4]; post-application measurement 2) was -0.21, the “24 hours drop from untreated Control” value (axillary malodor [4]; post-application measurement 2) was 0.99 and the “A-B (drop of comparative product minus drop of BCA product)” value (axillary malodor [4]; post-application measurement 3) was -0.50. The “24 hours drop from untreated Control” value (axillary malodor [4]; post-application measurement 3) was 1.29, the “A-B (drop of comparative product minus drop of BCA product)” value (axillary malodor [4]; post-application measurement 4) was -0.62 and the “24 hours drop from untreated Control” value (axillary malodor [4]; post-application measurement 4) was 1.10. For the same molecule, the “Inhibition of malodor formed by staphylococcal metabolism of precursors” value (β-lyase) was “did not inhibit malodor”.
